These results are taken from BindingDB's records for doi:10.7270/Q24X565S (The Scripps Research Institute Molecular Screening Center, 2007).

Structures can show the parent of a compound that is named as a salt.

As a reminder, the IC50 is the concentration that gives 50% inhibition. High values mean lower potency, low ones higher potency.

In one assay the target is cAMP-dependent protein kinase catalytic subunit alpha (Homo sapiens, UniProt P17612). Put plainly: PKA catalytic subunit inhibitors, dose response, biochemical, Kinase-Glo luminescence, Kemptide substrate (AID 548).
Settings: not given
For orientation: In Kinase-Glo more light means more ATP remaining.
`COc1ccc2c(Cl)c(C(N)=O)sc2c1` [3-Chloro-6-methoxy-benzo[b]thiophene-2-carboxylic acid amide]: the IC50 was above 59.6 µM.

`Fc1cc2nc(-c3ccncc3)[nH]c2cc1F` [SMR000040673] showed an IC50 above 59.6 µM.

`CCc1cc2c(O)ncnc2s1` [MLS000029626] had an IC50 above 59.6 µM.

Turning to `O=NCc1c[nH]c2ccccc12` [MLS000104363], half-maximal inhibition (IC50) required 34.4 µM. This counts as double-digit micromolar.

Turning to `c1nc(N2CCCC2)c2[nH]cnc2n1` [6-(1-pyrrolidinyl)-7H-purine], half-maximal inhibition (IC50) was put at 35.6 µM.

`O=C(CSc1nnc(-c2ccncc2)[nH]1)c1ccccc1` gave an IC50 of 24.6 µM.

For `c1ccc(Cn2ncc3c2ncn2c(-c4ccncc4)nnc32)cc1` [7-Benzyl-3-pyridin-4-yl-7H-pyrazolo[4,3-e][1,2,4]triazolo[4,3-c]pyrimidine], the concentration for half-maximal inhibition (IC50) was above 19.9 µM.

In turn, `Cc1ccc(S(=O)(=O)NCCSc2nnnn2-c2ccc(C(N)=O)cc2)cc1` [4-[5-[2-(tosylamino)ethylthio]tetrazol-1-yl]benzamide] had an IC50 of 10.4 µM.

`CCC1CCCCN1c1nc(-c2ccncc2)nc2ccccc12` (centres undefined) [4-(2-ethyl-1-piperidinyl)-2-pyridin-4-ylquinazoline] had an IC50 of 13.6 µM.

`O=C(CCCOc1ccccc1)Nc1ccncc1` [4-Phenoxy-N-pyridin-4-yl-butyramide] registered an IC50 above 59.6 µM.

In turn, `c1nc(NC2CCCCC2)c2[nH]cnc2n1` [N-cyclohexyl-7H-purin-6-amine] showed a concentration for half-maximal inhibition (IC50) of 8.94 µM.

Molecule `Fc1ccccc1N1CCN(c2ncnc3n[nH]cc23)CC1` [4-[4-(2-fluorophenyl)piperazin-1-yl]-1H-pyrazolo[3,4-d]pyrimidine] registered an IC50 of 52.3 µM.

For `Cn1c(SCc2ccc(Br)cc2)nnc1-c1ccncc1` [4-[5-[(4-bromobenzyl)thio]-4-methyl-1,2,4-triazol-3-yl]pyridine], the IC50 was above 59.6 µM.

In the case of `Cc1cccc(NC(=O)CSc2n[nH]c(-c3ccncc3)n2)c1` [N-(3-methylphenyl)-2-[(5-pyridin-4-yl-1H-1,2,4-triazol-3-yl)thio]acetamide], the IC50 was above 59.6 µM.

`Cc1cc2ccccc2c(=O)n1CC(=O)Nc1ccc2c(c1)OCO2` [MLS000086255] registered an IC50 above 59.6 µM.

`Nc1c(S(=O)(=O)c2cccc(Cl)c2)c2c(n1N=CC1=CC(=O)C(=O)C=C1)Nc1ccccc1N2` [4-[[2-azanyl-3-(3-chlorophenyl)sulfonyl-4,9-dihydropyrrolo[3,2-b]quinoxalin-1-yl]iminomethyl]cyclohexa-3,5-diene-1,2-dione] yielded an IC50 above 59.6 µM.

`CCN1CCN(Cc2nnnn2C(C)(C)C)CC1` [1-(1-tert-Butyl-1H-tetrazol-5-ylmethyl)-4-ethyl-piperazine] showed an IC50 above 59.6 µM.

For the molecule `Cc1ccc(SCc2nc(-c3ccncc3)no2)cc1` [4-(5-{[(4-methylphenyl)thio]methyl}-1,2,4-oxadiazol-3-yl)pyridine], the IC50 was above 59.6 µM.

`Clc1ccc(OCCN2CCN(c3ncnc4sccc34)CC2)cc1` [4-[4-[2-(4-chloranylphenoxy)ethyl]piperazin-1-yl]thieno[2,3-d]pyrimidine]: half-maximal inhibition (IC50) was put at 59.2 µM.

As for `CN(C(=O)COc1ccccc1)c1nnc(-c2ccncc2)s1` [MLS000075421], the IC50 was above 59.6 µM.

`Nc1nonc1-n1nncc1-c1ccccc1` [4-(5-phenyl-1,2,3-triazol-1-yl)-1,2,5-oxadiazol-3-amine] had an IC50 above 59.6 µM.

For the molecule `COc1cc2c(cc1NC(=O)COC(=O)Cn1cnc3ccccc31)oc1ccccc12` [2-(1-benzimidazolyl)acetic acid [2-[(2-methoxy-3-dibenzofuranyl)amino]-2-oxoethyl] ester], the 50% inhibitory concentration (IC50) was 37.5 µM.

As for `CCOc1ccc2nc3ccc4[nH]onc4c3c2c1` [SMR000111865], the IC50 was above 59.6 µM.

On to `c1ccc2c(-c3ccncc3)c[nH]c2c1`, for which the IC50 came out at 11.3 µM.

Molecule `Cc1cc2c(ccc3[nH]onc32)n1` [MLS000038925] came in with an IC50 of 50.5 µM.

`c1ccc(CCCNc2[nH]cnc3ncnc2-3)cc1`: the IC50 is 39.5 µM.

For the molecule `CC(=O)n1cc(-c2ccncc2)c2ccccc21` [1-(3-pyridin-4-yl-1-indolyl)ethanone;hydrochloride], the IC50 turned out to be 45 µM. The IC50 values of the last two molecules are within 1.5-fold of each other.

In the case of `Cc1c2ccncc2c(C)c2c1[nH]c1ccccc12` [5,11-dimethyl-2H-pyrido[4,3-b]carbazole], it took 4.09 µM to reach half-maximal inhibition (IC50).

`c1ccc(Cn2ncc3c2ncn2nc(-c4ccncc4)nc32)cc1` [MLS000078634]: the IC50 was above 19.9 µM.

For `C1=C(c2c[nH]c3ccccc23)CCNC1`, the half-maximal inhibitory concentration (IC50) was above 59.6 µM.

With `Nc1[nH]nc2nc(N3CCCC3)nc(-c3ccccc3)c12`, the half-maximal inhibitory concentration (IC50) was above 59.6 µM.

The assay is the same for the next values; noted with them: inactive by the depositor's call.
Take `Fc1ccccc1Cn1nnc2c(-n3ccnc3)ncnc21` [3-(2-Fluoro-benzyl)-7-imidazol-1-yl-3H-[1,2,3]triazolo[4,5-d]pyrimidine]: half-maximal inhibition (IC50) required 231 µM.

`NC(=O)c1sc2nc(N3CCCCC3)c3c(c2c1N)CCCC3` [1-amino-5-(1-piperidinyl)-6,7,8,9-tetrahydrothieno[2,3-c]isoquinoline-2-carboxamide] registered an IC50 of 358 µM.

Turning to `CC1(C)Cc2c(c(-c3ccco3)nc3n[nH]c(N)c23)CO1` [SMR000045457], the midpoint of inhibition, the IC50, lay at 70.1 µM.
